Patent US5861439A, “Method for enhanced electrotransport agent delivery” (priority 1994, dated 1999)
Like-named read-outs stand apart in the source and are kept apart here.

Key:
human cadaver skin [1] = details: for increase in the rate of delivery of ketoprofen: electrotransport, versus control (no enhancer); for Normalized Skin Resistance: ketoprofen electrotransport, steady state, divided by control (no enhancer), 100 μA/cm^2, 32° C.
Description: (§1) Skin strips having a thickness of 1 mm were removed from a human cadaver with an electric dermatome. These skin strips were placed in polyethylene bags, sealed and placed in a refrigerator at 4° C. for temporary storage. Prior to use in an electrotransport cell, the skin strips were placed in 1 liter beakers containing water at 60° C. for about 90 seconds, and gently stirred. The skin strips were then removed, and placed onto the absorbent side of a piece of BENCHKOTE fabric with their dermis side down. The epidermis was removed from each strip with a round-tip spatula, and flat tipped tweezers to retain the dermis. Each epidermis, stratum corneum side up, was then transferred to a 5 cm deep PYREX glass tray filled with water. Each floating epidermis was stretched essentially flat, and then removed from the water, and 2.2 cm diameter disks of each epidermis were punched out of areas having no observable surface damage. The disks were stored at 4° C. in a sealed container with water droplets to maintain their moisture.
(§2) The disks were mounted between the donor and receptor compartments, with the stratum corneum side facing the donor compartment, of a 2-compartment polycarbonate electrotransport permeation cell. The volume of each compartment was about 2 mL and the area between the two compartments, ie, the exposed area for transport, was about 1.26 cm^2.
(§3) An aqueous solution of the drug being transdermally delivered and the selected permeation enhancer composition, if any, was placed in the donor compartment. Dulbecco's phosphate buffered saline (approximately 0.15N NaCl, pH 7.0) was placed in the receptor compartment.
(§4) The rate of transport of drug and the electrical resistance of the skin were monitored throughout the experiments while applying an electric current.
(§5) The cell was maintained at 32° C. by a Haake Model D1 heating block/water bath. The electrodes were connected to a galvanostat, which applied a constant current of 126 μA (current density of 100 μA/cm^2) and monitored the voltage drop across the skin by placing two Ag/AgCl junction reference electrodes, one each in the donor and receptor solutions, and measuring the voltage difference (AV) between the electrodes.
(§6) The resistance of the skin (R) was obtained from Ohm's law:
(§7) where i equals the applied current (ie, 126 μA).
The following experiments were conducted to assess the effect of one composition of the invention, containing ethanol and dodecanol, on the transdermal delivery of sodium ketoprofen (ketoprofen anions) by electrotransport from a cathodic electrode. The electrotransport delivery of ketoprofen in the presence of various enhancers was assessed side-by-side for comparative purposes. The enhancers used were as follows: (i) ethanol alone; (ii) dodecanol alone; (iii) no enhancer; (iv) ethanol and dodecanol. […] A silver chloride composite polymer electrode (cathode) was placed in the donor compartment, and a silver foil electrode (anode) was placed in the receptor compartment.
Each experiment was started by connecting the power source to the electrodes, and samples were automatically taken from the receptor compartment every one to two hours, except for overnight experimentation, using an Isco Model 2230 autosampler and a metering pump. The concentration of ketoprofen in the samples was determined by high performance liquid chromatography (HPLC) using a Shimadzu Model SCL-6B chromatograph. Each run was conducted in triplicate, including the control, to minimize errors. All cells were set-up with tissue from the same cadaver. The selected permeation enhancer composition was placed in the donor compartment, while the control cell's donor compartment contained no enhancer.

human cadaver skin [2] = details: for Normalized Skin Resistance (after 5 hrs): metoclopramide electrotransport, n=3, 100 μA/cm^2, 32° C.
Description: as §1, §2, §3, §4, §5, §6, §7
The experimental conditions were identical to those described in Example 1, except an aqueous solution of metoclopramide HCl, instead of sodium ketoprofen, was placed in the donor compartment. In addition, the silver chloride cathode was placed in the receptor compartment and the silver foil anode was placed in the donor compartment since metoclopramide ions are cationic as opposed to ketoprofen ions which are anionic. The concentration of metoclopramide in the donor solution was about 100 mg metoclopramide/mL, and saline pH 7 was placed in the receptor compartment. The system was maintained at 32° C. and a constant electric current of 100 μA/cm^2 was applied throughout the procedure.
The mass flux and skin resistance values were normalized versus the control. […] The skin resistance (which was calculated from the measured cell voltage ΔV using Ohm's law, […]) was also normalized with respect to the value obtained by electrotransport of metoclopramide in the absence of any permeation enhancer (rightmost column).

skin [3] = details: cited from earlier work; for rate of electrotransport of sotalol (in words): compared to electrotransport without DDAA or azone (control)
skin [4] = details: relative to sotalol alone (control); no current; cited from earlier work

Compound: CCCCCCCCCCCCO [Dodecanol, dodecanol]
- reduction in skin resistance (human cadaver skin [1]): ~60%
- increase in the rate of delivery of ketoprofen (human cadaver skin [1]): 93%
- Normalized Skin Resistance (human cadaver skin [1]; enhancer dodecanol <100 mM): 0.39

Compound: CCO [Ethanol, ethanol]
- mass flux of metoclopramide (in words) (human cadaver skin [2]): not to enhance, but to actually decrease, the mass flux of metoclopramide
- Normalized Skin Resistance (after 5 hrs) (human cadaver skin [2]; ethanol 10 wt %, versus no enhancer): 1.32
- Normalized Skin Resistance (after 5 hrs) (human cadaver skin [2]; ethanol 20 wt %, versus no enhancer): 1.13
- Normalized Skin Resistance (after 5 hrs) (human cadaver skin [2]; ethanol 30 wt %, versus no enhancer): 1.26
- resistance of the skin during electrotransport delivery of metoclopramide (in words) (human cadaver skin [2]; ethanol alone, versus no enhancer): increase the resistance of the skin
- reduction in skin resistance (human cadaver skin [1]): > 50%
- increase in the rate of delivery of ketoprofen (human cadaver skin [1]): 24%
- Normalized Skin Resistance (human cadaver skin [1]; enhancer 25% v/v ethanol): 0.47
- effect of difference in ethanol concentration (25% v/v alone, 20% v/v with dodecanol) (human cadaver skin [1]; in words, said to be confirmed in Example 2): does not significantly alter its effect

Compound: CCCCCCCCCCCCN1CCCCCC1=O [azone]
- rate of electrotransport of sotalol (in words) (skin [3]): actually reduced the rate of electrotransport delivery of the agent
- rate of passive permeation of sotalol (in words) (skin [4]): increase the rate of passive permeation

Compound: CC(C)NCC(O)c1ccc(NS(C)(=O)=O)cc1 (centres unmarked) [sotalol]
- rate of delivery of sotalol with passage of an electric current (in words) (skin [3]; compared to its passive rate (control)): increase the rate of delivery of sotalol compared to that of its passive rate

Compound: N, N-dimethylamino acetate [DDAA]
- rate of electrotransport of sotalol (in words) (skin [3]): actually reduced the rate of electrotransport delivery of the agent
- rate of passive permeation of sotalol (in words) (skin [4]): increase the rate of passive permeation
